In patent EP0595183B1, “Hydantoin derivatives, salts thereof and maillard reaction inhibitors comprising the same” (SANWA KAGAKU KENKYUSHO CO., LTD., priority 1992, dated 1994):

Experiments:
[1] = system: bovine serum albumin (BSA); assay: Inhibition of fluorescence development (Maillard reaction products) in BSA/fructose incubation; format: biochemical; conditions: compound 5mM, BSA 10mg/ml, fructose 400mM, pH 7.4, 20% DMSO, 37°C for 24 hours; fluorescence ex 350nm / em 428nm
Method: A testing or control compound (5mM), bovine serum albumin (BSA, 10mg/ml) and fructose (400mM) were dissolved in […] Na-phosphate buffer (pH 7.4) containing 20% DMSO. The mixture was incubated at 37°C for 24 hours.
The incubated mixture was diluted to 10 folds in volume with distilled water and measured fluorescense intensity at excitation wavelength of 350nm and emission wavelength of 428nm with a HITACHI F-4010 spectrofluorometer. The inhibition ratio of fluorescense development was estimated with the following equation. Inhibition (%) = {[F1-F3-F4)- (F2-F3-F4)]/(F1-F3-F4)} x 100 [formula] wherein, Inhibition : Inhibition ratio, F1 : Fluorescense intensity of the solution containing no compound, F2 : Fluorescense intensity of the solution containing the compound, F3 : Fluorescense intensity of the solution containing only BSA, and F4 : Fluorescense intensity of the solution containing only fructose.

BSA = assay: Inhibition of cross-linking of proteins (SDS-PAGE), BSA with fructose; format: biochemical; conditions: Protein BSA 10mg/ml, compound 5mM, fructose 400mM, pH 7.4, 37°C for 7 days
Method: (§1) A testing or control compound (5mM), fructose (400mM) and a protein of either BSA (10mg/ml) or lysozyme (10mg/ml) were dissolved in 0.5M Na-phosphate buffer (pH 7.4). The mixture was incubated at 37°C for 7 days At the end of the reaction period, sodium dodecyl sulfonate-polyacrylamide gel electrophoresis (SDS-PAGE) was carried out with using aliquots of the reaction mixture. Protein band was stained with Coomassie brilliant blue and protein content of each band was determined with a SHIMAZU UV-265 scanmeter.
(§2) The inhibition ratio of cross-linking of proteins was estimated with the following equation. Inhibition ratio (%) = [(A - B)/A] x 100 [formula] wherein, A : degree of cross-link formation (containing no compound), and B : degree of cross-link formation (containing the compound).

lysozyme = assay: Inhibition of cross-linking of proteins (SDS-PAGE), lysozyme with fructose; format: biochemical; conditions: Protein Lysozyme 10mg/ml, compound 5mM, fructose 400mM, pH 7.4, 37°C for 7 days
Method: as §1, §2

[2] = Acute toxicity by oral administration; conditions: in vivo
Excerpt: (§3) Acute and 4 week subacute toxicities of exemplar compounds according to the invention were checked by oral administration thereof and using rats.

rats = assay: 4 week subacute toxicity by oral administration; format: in vivo; conditions: rat (male)
Excerpt: as §3

SMILES	Inhibition ratio (%) [1]	Inhibition ratio (%) (BSA)	Inhibition ratio (%) (lysozyme)	LD50 ([2]; rat (female))	LD50 ([2]; rat (male))	Non-toxic dose (rats)
N=C(N)NN [Aminoguanidine, reference compound]	86.9%	70.7%	59.3%	1300 mg/kg	1900 mg/kg	30 mg/kg
NNC(=O)[C@H]1C[C@@]2(NC(=O)NC2=O)c2cc(F)ccc2O1 [Example 1, (2R,4R)-6-Fluoro-2',5'-dioxospiro[chroman-4,4'-imidazolidine]-2-carbohydrazide]	87.3%			> 4000 mg/kg	> 4000 mg/kg	
NNC(=O)[C@H]1C[C@]2(NC(=O)NC2=O)c2cc(F)ccc2O1 [Example 2, (2R,4S)-6-Fluoro-2',5'-dioxospiro[chroman-4,4'-imidazolidine]-2-carbohydrazide]	88.6%					
NNC(=O)[C@@H]1C[C@@]2(NC(=O)NC2=O)c2cc(F)ccc2O1 [Example 3, (2S,4R)-6-Fluoro-2',5'-dioxospiro[chroman-4,4'-imidazolidine]-2-carbohydrazide]	88.1%					
O=C1NC(=O)[C@@]2(C[C@@H](C(=O)NNC(=O)C(F)(F)F)Oc3ccc(F)cc32)N1 [Example 7, (2S, 4S)-6-Fluoro-2',5'-dioxo-N'-trifluoroacetylspiro[chroman-4,4'-imidazolidine]-2-carbohydrazide]	21.3%					
NNC(=O)[C@@H]1C[C@]2(NC(=O)N(N)C2=O)c2cc(F)ccc2O1 [Example 9, (2S,4S)-1'-Amino-6-fluoro-2',5'-dioxospiro[chroman-4,4'-imidazolidine]-2-carbohydrazide]	86.6%					
NC(=O)[C@@H]1C[C@]2(NC(=O)N(N)C2=O)c2cc(F)ccc2O1 [Example 10, (2S,4S)-1'-Ainino-6-fluoro-2',5'-dioxospiro[chroman-4,4'-imidazolidine]-2-carboxamide]	19.7%					
NNC(=O)[C@@H]1C[C@]2(NC(=O)NC2=O)c2cc(F)ccc2O1 [Reference Example 2, (2S,4S)-6 -Fluoro-2',5'-dioxospiro[chroman-4,4'-imidazolidine]-2-carbohydrazide]	88.7%	88.7%	67.4%	> 4000 mg/kg	> 4000 mg/kg	> 2000 mg/kg
CNNC(=O)[C@@H]1C[C@]2(NC(=O)NC2=O)c2cc(F)ccc2O1 [Reference Example 3, (2S,4S)-6-Fluoro-N'-methyl-2',5'-dioxospiro[chroman-4,4'-imidazolidine]-2-carbohydrazide]	41.6%					
O=C1NC(=O)[C@@]2(C[C@@H](C(=O)NNc3ccccc3)Oc3ccc(F)cc32)N1 [Reference Example 4, (2S,4S)-6-Fluoro-2',5'-dioxo-N'-phenylspiro[chroman-4,4'-imidazolidine]-2-carbohydrazide]	17.8%					
